Where “and” joins values, the source holds several entries; their conditions need not be identical. Equal values may be shown once. Read-outs that look alike come from different tables or passages of the source. Marks after values point to notes of the source that are not given here.
Columns and labels:
Human SQOR [1] = biological target: T1, Human SQOR (Homo sapiens, UniProt Q9Y6N5); details: cited from earlier work
T1 construct: made in house

[2] = cited from earlier work
[3] = pKa and nucleophilicity of LMW persulfides by pH-dependence of reaction rates with mBrB (stopped-flow fluorescence); details: for pKa, Persulfide / kind with mBrB, Persulfide: I = 0.15, 25 °C, this work; for ΔpKa: analog thiol pKa minus persulfide pKa; for kind with mBrB, Persulfide: pH-independent rate constant
[4] = cited from earlier work; for kind with mBrB, Analog thiol: pH-independent rate constant of analog thiol
Cys248 [5] = biological target: T2, Cys248 (UniProt position 248, PLIATCRKGVT); test: kinetics; details: 25 °C; I = 0.15 M (120 mM NaCl); acetic/MES/Tris (15 mM acetic acid, 15 mM MES, 30 mM Tris, 120 mM NaCl, 0.1 mM DTPA); TST thiol (sulfur-free) form reacting with thiosulfate, pseudo-first order
Human TST = Human TST (Homo sapiens, UniProt Q16762); details: cited from earlier work
Sequence of Human TST (Q16762 whole entry): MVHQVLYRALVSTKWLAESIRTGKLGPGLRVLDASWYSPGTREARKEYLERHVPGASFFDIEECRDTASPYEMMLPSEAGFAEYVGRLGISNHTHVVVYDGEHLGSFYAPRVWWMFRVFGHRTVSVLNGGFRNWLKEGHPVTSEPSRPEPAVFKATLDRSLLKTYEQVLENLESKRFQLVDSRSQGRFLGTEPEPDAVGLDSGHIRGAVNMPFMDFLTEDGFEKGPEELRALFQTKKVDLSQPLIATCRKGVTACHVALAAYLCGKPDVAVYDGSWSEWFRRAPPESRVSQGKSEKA

Cys248 [6] = biological target: T2, Cys248; details: cited from earlier work
Cys = details: cited from earlier work
Human SQOR [7] = biological target: T1, Human SQOR; format: biochemical; details: neutral pH
Procedure: The acidity of the persulfidated SQOR was evaluated by the pH-dependence of the steady-state rates. For enzymes that catalyze reactions with one substrate, the kinetic parameter kcat/Km (specificity constant) is an apparent second-order rate constant that reports on the properties of the free enzyme and the free substrate ([32]). kcat/Km can be calculated from the kinetic parameters kcat and Km obtained from typical Michaelis–Menten analysis (Equation 1). […]
SQOR uses three substrates: H2S, a sulfur acceptor (Acc^−), and CoQ (Fig. 1A). At saturating concentrations of H2S and CoQ, the kcat/Km^Acc- represents the apparent rate constant for the reaction between the sulfur acceptor and the Cys379SSH of the bis-persulfidated SQOR, and its pH-dependency reports on the pKa of both free species. Although the pH dependence of human SQOR activity has been reported ([25]), the pH dependence of kcat/Km is unavailable. The steady-state rate of SQOR was determined by monitoring the reduction of coenzyme Q1 (CoQ1) at 278 nm at varying pH at 25 °C. […]. Therefore, in the experiments with cyanide, the reactions were started with cyanide instead of SQOR so that the contribution of SQOR with H2S alone could be subtracted.
In experiments with sulfite, steady-state time courses with varying concentrations of sulfite (0.01–8 mM) were recorded, and linear functions were fitted to the first 15 to 40 s following SQOR addition (Fig. 3A). The slope before SQOR addition was subtracted to correct for the background nonenzymatic reduction of CoQ1, which was minimal. From the hyperbolic fit of the activity versus sulfite concentration plot (Fig. 3B), the kinetic parameters kcat^sulfite and Km^sulfite were obtained, and the kcat/Km^sulfite for each pH were calculated. As expected, when the kcat/Km^sulfite were plotted against pH, a bell-shaped profile was obtained (Fig. 3C), consistent with a reaction between a deprotonated species and a protonated one. An equation with two pKa was fitted to the data (Equation 3), assuming that deprotonated sulfite and protonated SQOR persulfide were the reacting species. […]. […]
The steady-state rates were obtained from linear fits to the data during the first 4 to 20 s following cyanide addition, and the slopes before cyanide addition were subtracted. The kcat/Km^cyanide at each pH was calculated according to Equation 2 using the enzyme (50 nM) and cyanide (90 μM) initial concentrations. […]
Human SQOR was expressed and purified as reported previously ([24], [25]). SQOR concentration was determined from the FAD absorbance at 450 nm, using ε = 11,500 M^−1 cm^−1 ([25]). […]
The activity of SQOR was measured at different pHs in a temperature-controlled spectrophotometer (Shimadzu UV-2600 or UV-1900i). […]

TST thiol = TST thiol (Homo sapiens, UniProt Q16762)
Sequence of TST thiol (Q16762 whole entry): as above
Procedure: The pH-dependency of the reaction rates of TST persulfide with sulfur acceptors and of TST thiol with thiosulfate were studied by following changes in the intrinsic fluorescence (λex = 295 nm, US 360 nm bandpass filter) in the stopped-flow spectrofluorimeter.
To prepare TST thiol, ∼ 100 μM thiosulfate was added to TST stocks ( ∼ 20 μM) at room temperature. After 15 min, ∼ 200 μM cyanide was added and left to react for 10 min. The remaining LMW compounds were removed with a PD MidiTrap G-25 column equilibrated with 10 mM Tris buffer, pH 8.5. The TST thiol was diluted in ultrapure water (1.8–2.0 μM) in one of the stopped-flow syringes and reacted with thiosulfate (400 μM) prepared in the other syringe in either acetic/MES/Tris buffer 2× (pH 3.68–8.75) or in ACES/Tris/ethanolamine buffer 2× (pH 6.68–10.34), at 25 °C. The final concentrations were halved as a result of the symmetrical stopped-flow mixing. The decrease in the intrinsic fluorescence caused by persulfide formation was recorded during 0.8 to 200 s depending on the time course, and the final pH was measured.

bovine TST = details: cited from earlier work
[8] = forms as drawn in Table 1 (ammonium form for CysOMeSSH)

T1 sequence (Q9Y6N5 whole entry): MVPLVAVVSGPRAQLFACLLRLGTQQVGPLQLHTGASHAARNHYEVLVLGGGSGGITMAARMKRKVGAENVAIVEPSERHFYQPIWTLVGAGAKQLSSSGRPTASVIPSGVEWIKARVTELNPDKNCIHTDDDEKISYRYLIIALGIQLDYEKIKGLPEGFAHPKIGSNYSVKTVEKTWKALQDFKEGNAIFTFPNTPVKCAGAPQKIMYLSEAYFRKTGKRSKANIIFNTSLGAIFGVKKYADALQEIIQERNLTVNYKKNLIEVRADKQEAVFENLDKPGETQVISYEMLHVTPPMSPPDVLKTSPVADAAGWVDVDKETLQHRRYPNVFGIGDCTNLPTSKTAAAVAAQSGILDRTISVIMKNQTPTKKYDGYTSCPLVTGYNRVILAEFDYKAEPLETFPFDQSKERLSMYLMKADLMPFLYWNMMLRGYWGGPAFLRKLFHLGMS

For `S` [Persulfide H2S, hydrogen sulfide], the Km (Human SQOR [1]; pH 7.4, H2S as sulfur acceptor, read-out: Km^H2S (Acceptor)) is given as 350 µM and the Km (Human SQOR [1]; pH 7.5, first step of catalysis, read-out: Km^H2S (Donor)) is given as 13 µM.

In the case of `NC(CCS)C(=O)O` (stereo not shown) [Homocysteine], the “pKa, Analog thiol” value ([2]; analog thiol) is listed as 9.1 ^d.

With `COC(=O)[C@@H](N)CSS` [CysOMeSS^−, cysteine methyl ester persulfide] the “pKa, Persulfide” value [3, 8] was 4.6 ± 0.1 ^a, the “pKa, Persulfide” value ([3]; second pKa of two-pKa fit, amino (NH2) form of CysOMeSSH) was 6.3 ± 0.6 ^a and the ΔpKa [3] was 2.8. For the same molecule, the ΔpKa ([3]; amino (NH2) form of CysOMeSSH) was 2.6, the “kind with mBrB, Persulfide” value [3] was 3.8 ± 0.4 ^a × 10^3 M^−1 s^−1 and the “kind with mBrB, Persulfide” value ([3]; amino (NH2) form of CysOMeSSH) was 5.4 ± 0.8 ^a × 10^3 M^−1 s^−1.

For `N[C@@H](CS)C(=O)O` [Cysteine], the “kind with mBrB, Analog thiol” value [4] is listed as 105 ^d M^−1 s^−1 and the “pKa, Analog thiol” value ([2]; analog thiol) is listed as 8.29 ^d.

For `OCCSS` [β-MESS^−, β-mercaptoethanol persulfide], the “pKa, Persulfide” value [3, 8] was 5.8 ± 0.1 ^a, the ΔpKa [3] was 3.8 and the “kind with mBrB, Persulfide” value [3] was 7.5 ± 0.4 ^a × 10^3 M^−1 s^−1.

“Thiosulfate sulfurtransferase (TST, rhodanese), thiol form (Homo sapiens)” gave a pKa (Cys248 [5]) of 6.5 ± 0.1.

For `COC1=C(OC)C(=O)C(CC=C(C)C)=C(C)C1=O` [CoQ1, coenzyme Q1], the Km (Human SQOR [1]; pH 7.5, read-out: Km^CoQ1) is listed as 19 µM.

For `OCCS` [β-Mercaptoethanol], the “kind with mBrB, Analog thiol” value [4] is listed as 519 ^d M^−1 s^−1 and the “pKa, Analog thiol” value ([2]; analog thiol) is listed as 9.6 ^d.

In the case of `O=S(O)(O)=S` [thiosulfate], the “thiosulfate concentration causing inhibition of TST” value (Human TST; b33: with 312 μM cyanide) is listed as 30 mM and > 30 mM and the Km (Human TST; read-out: Km^thiosulfate) is listed as 18000 to 45000 µM.

In the case of `NC(CCSS)C(=O)O` (stereo not shown) [HcySS^−, homocysteine persulfide], the “kind with mBrB, Persulfide” value [3] is reported as 5.4 ± 0.1 ^a × 10^3 M^−1 s^−1.

For “Thiosulfate sulfurtransferase (rhodanese), bovine liver (Bos taurus)”, the pKa (Cys248 [6]; free enzyme thiol ('the thiol alone')) is listed as 7.8, the pKa (Cys248 [6]; thiol in complex with substrate analogs) is listed as 6.75 to 7.05 and the pKa (Cys248 [6]; thiol in complex with thiosulfate) is listed as 6.5.

With `NCCSS` [CystSS^−, cysteamine persulfide] the “pKa, Persulfide” value [3, 8] was 4.87 ± 0.09 ^a and the “kind with mBrB, Persulfide” value [3] was 3.9 ± 0.2 ^a × 10^3 M^−1 s^−1.

In the case of `CC(C)c1ccccc1` [Cumene], the “pKa, Analog thiol” value ([2]; analog thiol of the persulfide, predicted value based on similar thiols) is given as >10 ^h, the “pKa, Persulfide” value [2] is given as 7.0 ^g and the ΔpKa [3] is given as greater than 3.

For `N[C@@H](CCC(=O)N[C@@H](CS)C(=O)NCC(=O)O)C(=O)O` [Glutathione, glutathione], the “kind with mBrB, Analog thiol” value [4] is listed as 208 ^d M^−1 s^−1, the “pKa, Analog thiol” value ([2]; analog thiol) is listed as 8.94 ^d and the “pKa of the glycyl carboxylic acid” value ([2]; neutral variant of GSH) is listed as 3.36. For the same molecule, the “pKa of the glycyl carboxylic acid” value ([2]; positive variant of GSH) was 3.12 and the Km (Human SQOR [1]; pH 7.4, read-out: Km^GSH) was 8000 µM.

With `N[C@@H](CSS)C(=O)O` [CysSS^−, cysteine persulfide] the “pKa, Persulfide” value [3, 8] was 5.2 ± 0.1 ^a, the ΔpKa [3] was 3.1 and the “kind with mBrB, Persulfide” value [3] was 3.2 ± 0.1 ^a × 10^3 M^−1 s^−1. For the same molecule, the “pH-independent second-order rate constant, kind, with mBrB” value ([3]; persulfide, 25 °C) was “(3.2 ± 0.1) × 10^3 M^−1 s^−1”.

In the case of `N[C@@H](CCC(=O)N[C@@H](CSS)C(=O)NCC(=O)O)C(=O)O` [GSS^−, glutathione persulfide], the “pKa, Persulfide” value ([4]; I = 0.15, 25 °C) is listed as 5.45 ± 0.03 ^e, the “kind with mBrB, Persulfide” value ([4]; pH-independent rate constant, I = 0.15, 25 °C) is listed as 9.0 ± 0.2 ^e × 10^3 M^−1 s^−1 and the ΔpKa [3] is listed as 3.49.

For “3-Mercaptopyruvate sulfurtransferase (MPST) (Homo sapiens)”, the pKa (Cys) is listed as 5.2.

In the case of `COC(=O)[C@@H](N)CS` [Cysteine methyl ester], the “pKa, Analog thiol” value ([2]; analog thiol, amino (NH2) form) is given as 8.88 ^b, the “pKa, Analog thiol” value ([2]; analog thiol, ammonium form) is given as 7.44 ^b and the “pKa of the ammonium group” value ([2]; listed as CysOMeSH) is given as 6.88. For the same molecule, the “pKa of the ammonium group” value ([2]; listed as CysOMeS^−) was 8.32.

In the case of `Cl` [chloride], the “increase of apparent Km^sulfite” value (Human SQOR [7]; in the presence of 120 mM chloride versus absence) is reported as roughly 20 fold and the Ki (Human SQOR [7]; sulfite as sulfur acceptor, read-out: Ki (estimated), reversible competitive inhibition versus sulfite) is reported as roughly 7.4 mM.

B1: TST thiol (protein, UniProt Q16762 2-297, looked up)
Thiosulfate sulfurtransferase: VHQVLYRALVSTKWLAESIRTGKLGPGLRVLDASWYSPGTREARKEYLERHVPGASFFDIEECRDTASPYEMMLPSEAGFAEYVGRLGISNHTHVVVYDGEHLGSFYAPRVWWMFRVFGHRTVSVLNGGFRNWLKEGHPVTSEPSRPEPAVFKATLDRSLLKTYEQVLENLESKRFQLVDSRSQGRFLGTEPEPDAVGLDSGHIRGAVNMPFMDFLTEDGFEKGPEELRALFQTKKVDLSQPLIATCRKGVTACHVALAAYLCGKPDVAVYDGSWSEWFRRAPPESRVSQGKSEKA
modifications: active-site cysteine thiol
With B1 the “pH-independent rate constant, Cyanide” value (TST thiol) was “No reaction”, the “pH-independent rate constant, Sulfite” value (TST thiol) was “No reaction” and the “second-order rate constant with thiosulfate” value (TST thiol) was roughly 30000 M⁻¹ s⁻¹. For the same molecule, the “pKa of the decrease in kobs at alkaline pH” value (TST thiol; pH 6.68) was roughly 10.

B2: bovine TST: bovine thiosulfate sulfurtransferase (rhodanese), literature values (protein, UniProt P00586 2-297, looked up)
Thiosulfate sulfurtransferase: VHQVLYRALVSTKWLAESVRAGKVGPGLRVLDASWYSPGTREARKEYLERHVPGASFFDIEECRDKASPYEVMLPSEAGFADYVGSLGISNDTHVVVYDGDDLGSFYAPRVWWMFRVFGHRTVSVLNGGFRNWLKEGHPVTSEPSRPEPAIFKATLNRSLLKTYEQVLENLESKRFQLVDSRAQGRYLGTQPEPDAVGLDSGHIRGSVNMPFMNFLTEDGFEKSPEELRAMFEAKKVDLTKPLIATCRKGVTACHIALAAYLCGKPDVAIYDGSWFEWFHRAPPETWVSQGKGGKA
For B2, the “pKa of the thiol alone” value (bovine TST; bovine TST) is listed as 7.8, the “pKa of the thiol in complex with substrate analogs” value (bovine TST) is listed as 6.75 to 7.05 and the “pKa of the thiol in complex with thiosulfate” value (bovine TST) is listed as 6.5.

From paper PMC11039317, “Acidity of persulfides and its modulation by the protein environments in sulfide quinone oxidoreductase and thiosulfate sulfurtransferase” (The Journal of Biological Chemistry, 2024)
